Patent US9321756B2, “Azole compounds as PIM inhibitors” (priority 2011, dated 2016)
Like-named read-outs stand apart in the source and are kept apart here.

Experiments:
[1] = system: Pim-2 stably transfected U2OS human osteogenic sarcoma line; experiment: Pim cell assay U2OS (phospho-BAD normalized against total BAD), Pim-2 transfected; assay type: cell-based; settings: Homo sapiens, read-out: U2OS Pim2_Cell_IC50
[2] = biological target: full length recombinant Pim-1 (Homo sapiens (Human), UniProt P11309); experiment: Pim enzyme assay (HTRF, phosphorylation of biotinylated-BAD (S112) peptide), Pim-1; assay type: biochemical; settings: read-out: Pim_1_IC50
[3] = biological target: full length recombinant Pim-2 (Homo sapiens (Human), UniProt Q9P1W9); experiment: Pim enzyme assay (HTRF, phosphorylation of biotinylated-BAD (S112) peptide), Pim-2; assay type: biochemical; settings: read-out: Pim2_IC50
[4] = biological target: full length recombinant Pim-3 (Homo sapiens (Human), UniProt Q86V86); experiment: Pim enzyme assay (HTRF, phosphorylation of biotinylated-BAD (S112) peptide), Pim-3; assay type: biochemical; settings: read-out: Pim3 IC50
How it was run: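 IC50 values were fitted with a 4-parameter logistic model to percent-of-control HTRF signal (Eu anti-phospho-BAD S112 antibody/streptavidin-APC). Reactions used full-length Pim-3 and biotin-BAD (S112) peptide, ran 1 h 30 min at RT (22 °C) in Hepes pH 7.0 buffer with BSA and DTT, and were stopped by 3 mM EDTA.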

[5] = system: Pim-1 stably transfected U2OS human osteogenic sarcoma line; experiment: Pim cell assay U2OS (phospho-BAD normalized against total BAD), Pim-1 transfected; assay type: cell-based; settings: Homo sapiens, U2OS
[6] = read-out: U2OS Pim1_Cell_IC50, U2OS cells, Pim-1 transfected

Chain of full length recombinant Pim-1 (P11309 whole entry): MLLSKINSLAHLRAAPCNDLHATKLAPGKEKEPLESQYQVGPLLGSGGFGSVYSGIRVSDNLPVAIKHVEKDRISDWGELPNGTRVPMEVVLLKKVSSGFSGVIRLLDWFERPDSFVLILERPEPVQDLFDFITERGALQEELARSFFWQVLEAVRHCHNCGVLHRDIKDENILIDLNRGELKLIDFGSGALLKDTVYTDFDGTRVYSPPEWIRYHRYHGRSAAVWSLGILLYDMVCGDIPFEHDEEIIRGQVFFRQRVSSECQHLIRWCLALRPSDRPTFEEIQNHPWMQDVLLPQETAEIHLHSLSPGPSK
Chain of full length recombinant Pim-2 (Q9P1W9 whole entry): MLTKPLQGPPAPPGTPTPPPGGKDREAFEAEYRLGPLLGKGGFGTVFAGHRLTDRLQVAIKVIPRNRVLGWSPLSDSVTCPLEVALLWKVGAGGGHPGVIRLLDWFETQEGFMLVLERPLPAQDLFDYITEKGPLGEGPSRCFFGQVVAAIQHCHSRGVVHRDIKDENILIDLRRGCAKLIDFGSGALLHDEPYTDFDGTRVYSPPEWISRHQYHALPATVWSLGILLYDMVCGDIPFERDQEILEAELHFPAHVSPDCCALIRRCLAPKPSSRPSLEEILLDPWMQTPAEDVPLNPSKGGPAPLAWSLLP

| SMILES | IC50 ([1]; U2OS cells, Pim-2 transfected) [nM] | IC50 ([2]; Pim-1 enzyme assay) [nM] | IC50 ([3]; Pim-2 enzyme assay) [nM] | IC50 ([4]; Pim-3 enzyme assay) [nM] | IC50 ([5]; read-out: U2OS Pim1_Cell_IC50) [nM] | IC50 ([1]; U2OS) [nM] | IC50 [3] [nM] | IC50 [4] [nM] | IC50 [5, 6] [nM] | IC50 [2] [nM] |
| --- | --- | --- | --- | --- | --- | --- | --- | --- | --- | --- |
| Nc1nnc(-c2ccc3[nH]cc(-c4nccc(N5CCC[C@@H](O)C5)n4)c3c2)o1 (stereo in doubt) [Example 104, 1-(2-(5-(5-amino-1,3,4-oxadiazol-2-yl)-1H-indol-3-yl)-4-pyrimidinyl)-3-piperidinol] | 15200 | 11.4 | 7.73 | 5.1 | 2130 |  |  |  |  |  |
| CC(C)Oc1cccc(-c2c[nH]c3ccc(-c4nnc(N5CC[C@H](N)C5)s4)cc23)n1 [Example 34, (S)-1-(5-(3-(6-Isopropoxypyridin-2-yl)-1H-indol-5-yl)-1,3,4-thiadiazol-2-yl)pyrrolidin-3-amine 2,2,2-trifluoroacetate] |  | 10.5 |  |  |  | > 31600 | 24.8 | 1.51 | 280 |  |
| Nc1nnc(-c2ccc3[nH]cc(-c4nccc(N5CCOCC5)n4)c3c2)s1 [Example 11, 5-(3-(4-morpholinopyrimidin-2-yl)-1H-indol-5-yl)-1,3,4-thiadiazol-2-amine] | 2200 | 19.7 | 8.61 | 7.69 | 911 |  |  |  |  |  |
| c1ccc(-c2nnc(-c3ccc4[nH]cc(-c5cncc(C6CC6)n5)c4c3)o2)cc1 [Example 254, 3-(6-cyclopropyl-2-pyrazinyl)-5-(5-phenyl-1,3,4-oxadiazol-2-yl)-1H-indole] | 808 | 175 | > 1000 | 138 | > 15800 |  |  |  |  |  |
| CNc1nnc(-c2ccc3[nH]cc(-c4nccc(N5CCN(C)CC5)n4)c3c2)s1 [Example 132, N-methyl-5-(3-(4-(4-methyl-1-piperazinyl)-2-pyrimidinyl)-1H-indol-5-yl)-1,3,4-thiadiazol-2-amine] | 6910 | 11 | 33.6 | 3.98 | 1470 |  |  |  |  |  |
| Nc1nnc(-c2ccc3[nH]cc(-c4cccc(N5CCOCC5)n4)c3c2)o1 [Example 6, 5-(3-(6-morpholinopyridin-2-yl)-1H-indol-5-yl)-1,3,4-oxadiazol-2-amine] | 2110 | 5.91 | 20.8 | 5.74 |  |  |  |  | 61.9 |  |
| Nc1nnc(-c2ccc3[nH]cc(-c4cncc(NC5CCCC5)n4)c3c2)o1 [Example 4, 5-(3-(6-(cyclopentylamino)pyrazin-2-yl)-1H-indol-5-yl)-1,3,4-oxadiazol-2-amine] | 342 | 1.01 | 2 | 0.586 | 27 |  |  |  |  |  |
| Nc1nnc(-c2ccc3[nH]cc(-c4cncc(-c5ccccc5F)n4)c3c2)o1 [Example 116, 5-(3-(6-(2-fluorophenyl)-2-pyrazinyl)-1H-indol-5-yl)-1,3,4-oxadiazol-2-amine] | > 31600 | 15.2 | 19.6 | 7.81 |  |  |  |  | 224 |  |
| Nc1nnc(-c2ccc3[nH]cc(-c4cccc(N5CCCC5=O)n4)c3c2)s1 [Example 166, 1-(6-(5-(5-amino-1,3,4-thiadiazol-2-yl)-1H-indol-3-yl)-2-pyridinyl)-2-pyrrolidinone] | > 31600 | 18.2 | 38.3 | 5.33 | > 31600 |  |  |  |  |  |
| Nc1nnc(-c2ccc3[nH]cc(-c4cncc(NC5CCCC5)n4)c3c2)s1 [Example 17, 5-(3-(6-(cyclopentylamino)pyrazin-2-yl)-1H-indol-5-yl)-1,3,4-thiadiazol-2-amine 2,2,2-trifluoroacetate] |  |  |  |  | 56.6 | 1220 | 5.92 | 0.763 |  | 1.5 |
| CC(C)Nc1cncc(-c2c[nH]c3ccc(-c4nnc(N)o4)cc23)n1 [Example 101, 6-(5-(5-amino-1,3,4-oxadiazol-2-yl)-1H-indol-3-yl)-N-(1-methylethyl)-2-pyrazinamine] | 809 | 1.5 | 4.03 | 0.901 |  |  |  |  | 66.4 |  |
| CNc1nnc(-c2ccc3[nH]cc(-c4nccc(N5CCCCC5)n4)c3c2)s1 [Example 135, N-methyl-5-(3-(4-(1-piperidinyl)-2-pyrimidinyl)-1H-indol-5-yl)-1,3,4-thiadiazol-2-amine] | > 31600 | 86.1 | 59.7 | 32.7 |  |  |  |  | 8440 |  |
| c1cc2[nH]cc(-c3cncc(C4CC4)n3)c2cc1-c1nnc(NC2CNC2)o1 [Example 247, N-3-azetidinyl-5-(3-(6-cyclopropyl-2-pyrazinyl)-1H-indol-5-yl)-1,3,4-oxadiazol-2-amine] | > 31600 | 1.34 | 1.05 | 0.346 | 1940 |  |  |  |  |  |
| CCOc1cccc(-c2c[nH]c3ccc(-c4nnc(NC)s4)cc23)n1 [Example 230, 5-(3-(6-ethoxy-2-pyridinyl)-1H-indol-5-yl)-N-methyl-1,3,4-thiadiazol-2-amine] | > 31600 | 30.9 | 63.1 | 7.13 | 912 |  |  |  |  |  |
| Nc1nnc(-c2ccc3[nH]cc(-c4cccc(NCC5CC5)n4)c3c2)s1 [Example 204, 6-(5-(5-amino-1,3,4-thiadiazol-2-yl)-1H-indol-3-yl)-N-(cyclopropylmethyl)-2-pyridinamine] | 7720 | 82.9 | 145 | 18.2 | 466 |  |  |  |  |  |
| CSc1nnc(-c2ccc3[nH]cc(-c4cccc(N5CCOCC5)n4)c3c2)s1 [Example 243, 5-(5-(methylsulfanyl)-1,3,4-thiadiazol-2-yl)-3-(6-(4-morpholinyl)-2-pyridinyl)-1H-indole] | > 31600 | 223 | 2820 | 85.2 |  |  |  |  | 6330 |  |
| Nc1nnc(-c2ccc3[nH]cc(-c4cncc(O[C@@H]5CCCNC5)n4)c3c2)o1 [Example 99, 5-(3-(6-((3R)-3-piperidinyloxy)-2-pyrazinyl)-1H-indol-5-yl)-1,3,4-oxadiazol-2-amine] | > 31600 | 6.77 | 12.9 | 12.4 |  |  |  |  | 12200 |  |
| COc1cncc(-c2c[nH]c3ccc(-c4nnc(N)s4)cc23)n1 [Example 212, 5-(3-(6-methoxy-2-pyrazinyl)-1H-indol-5-yl)-1,3,4-thiadiazol-2-amine] | > 31600 | 38.3 | 30.2 | 14.9 | 177 |  |  |  |  |  |
| CNc1nnc(-c2ccc3[nH]cc(-c4nccc(N5CCC[C@H](N)C5)n4)c3c2)s1 [Example 128, (3S)-1-(2-(5-(5-(methylamino)-1,3,4-thiadiazol-2-yl)-1H-indol-3-yl)-4-pyrimidinyl)-3-piperidinamine] | 15900 | 2.91 | 1.53 | 0.734 |  |  |  |  | 13800 |  |
| Nc1nnc(-c2ccc3[nH]cc(-c4cncc(N5CCOCC5)n4)c3c2)o1 [Example 90, 5-(3-(6-(4-morpholinyl)-2-pyrazinyl)-1H-indol-5-yl)-1,3,4-oxadiazol-2-amine] | 5420 | 8.91 | 13.4 | 6.46 | 374 |  |  |  |  |  |
| Nc1nnc(-c2ccc3[nH]cc(-c4nccc(C5CC5)n4)c3c2)o1 [Example 94, 5-(3-(4-cyclopropyl-2-pyrimidinyl)-1H-indol-5-yl)-1,3,4-oxadiazol-2-amine] | 280 | 5.19 | 0.984 | 0.998 |  |  |  |  | 75.2 |  |
